From ChEMBL document CHEMBL1201862, “PubChem BioAssay data set” (2004) come the findings set out here.

Some test systems named below: A549; ACHN; COLO 205; DU-145; IGROV-1; M14; MCF7; MDA-MB-435; MOLT-4; Malme-3M; OVCAR-4; OVCAR-5; RPMI-8226; RXF 393; SF-295; SF-539; SK-MEL-28; SK-OV-3; TK-10.
Holding throughout (assay): DTP human tumour cell line panel, 48 h

Structures are written as SMILES.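 How tested: cells in 96-well plates exposed to compound for 48 hours at five concentrations. GI50 marks 50% less growth.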 Activity calls are given as the source filed them. No stated cut-off is given here; in the data, active = GI50 up to about 1.1 µM and inactive = higher. Where only a bound is given, the exact number is not on record here.

Consider `C/N=c1\sc2c(n1C)C(=O)c1ccccc1C2=O`, for which the GI50 (in general, the concentration at which growth is held to half of that of the control) in the test with A549 was 1.93 µM (inactive); in the test on ACHN it was 5.81 µM (inactive); with COLO 205, 5.3 µM (inactive); in the test with DU-145, 1.66 µM (inactive); in the test with IGROV-1, 6.78 µM (inactive); with M14, 1.5 µM (inactive). For the same molecule, the GI50 with MCF7 is 1.65 µM (inactive); in the test with MDA-MB-435 it was 0.192 µM (active); with MOLT-4 it was 5.15 µM (inactive); in the test with Malme-3M, 0.331 µM (active); in the test on OVCAR-4, 5.43 µM (inactive); with OVCAR-5, 3.99 µM (inactive). The GI50 in the test on RPMI-8226 was 4.14 µM (inactive); in the test on RXF 393 it was 3.08 µM (inactive); in the test on SF-295 it was 1.54 µM (inactive); in the test on SF-539, 2.01 µM (inactive); in the test with SK-MEL-28 it was 1.96 µM (inactive); with SK-OV-3 it was 31.2 µM (inactive). The GI50 in the test with TK-10 was 14.6 µM (inactive).
As for `COc1cc2c(cc1OC)-c1cc3cc(OC)c(OC)cc3c(C)[n+]1CC2.O=C([O-])CS(=O)(=O)O`, the GI50 is > 100 µM (inactive) with A549; > 100 µM (inactive) with ACHN; 31.6 µM (inactive) in the test with COLO 205; > 100 µM (inactive) in the test on DU-145; 61.1 µM (inactive) in the test on IGROV-1; > 100 µM (inactive) in the test on M14. Besides, the GI50 in the test on MCF7 was 46.3 µM (inactive); with MDA-MB-435 it was 76.4 µM (inactive); with MOLT-4, 9.51 µM (inactive); in the test with Malme-3M, 29.3 µM (inactive); in the test with OVCAR-4 it was > 100 µM (inactive); in the test with OVCAR-5, > 100 µM (inactive). The GI50 in the test with RPMI-8226 was > 100 µM (inactive); in the test on RXF 393, > 100 µM (inactive); in the test with SF-295, > 100 µM (inactive); with SF-539, 76.6 µM (inactive); in the test on SK-MEL-28 it was > 100 µM (inactive); in the test with SK-OV-3 it was 79.1 µM (inactive). In addition, the GI50 in the test with TK-10 was > 100 µM (inactive).
Take `COC(=O)C1=C(OC(=O)/C(=C/c2ccccc2)c2ccc([N+](=O)[O-])cc2)C(C(=O)OC)[C@@]2(O)[C@@H](C(=O)OC)[C@H](C)C[C@@H]1[C@@H]2C(=O)OC` (stereo not given in full): the GI50 in the test on A549 is 76.2 µM (inactive); with ACHN, > 100 µM (inactive); in the test on COLO 205 it was > 100 µM (inactive); in the test with DU-145 it was > 100 µM (inactive); with IGROV-1 it was > 100 µM (inactive); in the test with M14 it was > 100 µM (inactive). The GI50 with MCF7 was > 100 µM (inactive); in the test with MDA-MB-435, > 100 µM (inactive); in the test on MOLT-4, 3.53 µM (inactive); in the test on Malme-3M, > 100 µM (inactive); with OVCAR-4, > 100 µM (inactive); in the test on OVCAR-5, > 100 µM (inactive). Besides, the GI50 with RPMI-8226 was 3.71 µM (inactive); with RXF 393 it was 53 µM (inactive); in the test with SF-295, > 100 µM (inactive); in the test with SF-539 it was 51.5 µM (inactive); in the test with SK-MEL-28 it was > 100 µM (inactive); in the test with SK-OV-3 it was > 100 µM (inactive). The GI50 with TK-10 was > 100 µM (inactive).
In the case of `COc1cc(N(CCC#N)CCC#N)ccc1C(=N/NC(=O)c1cc(Br)ccc1O)/N=N/c1ccccc1`, the GI50 in the test on A549 is 25.4 µM (inactive); in the test on ACHN, 28.2 µM (inactive); with COLO 205 it was 16.3 µM (inactive); with DU-145 it was 27.9 µM (inactive); in the test with IGROV-1, 13.8 µM (inactive); in the test on M14, 29 µM (inactive). In addition, the GI50 in the test on MCF7 is 18.9 µM (inactive); in the test with MDA-MB-435 it was 36.6 µM (inactive); in the test on MOLT-4, 15.9 µM (inactive); in the test with Malme-3M, 31.7 µM (inactive); in the test on OVCAR-4, 19.6 µM (inactive); in the test on OVCAR-5 it was 38.1 µM (inactive). In addition, the GI50 was 17.1 µM (inactive) with RPMI-8226; 26.4 µM (inactive) in the test with RXF 393; 31.6 µM (inactive) with SF-295; 34.2 µM (inactive) in the test on SF-539; 27.9 µM (inactive) with SK-MEL-28; 31.1 µM (inactive) in the test on SK-OV-3. In the test on TK-10, the GI50 was 33.1 µM (inactive).
For the molecule `CNc1ncnc(Sc2nc(N)nc3[nH]cnc23)c1[N+](=O)[O-]`, the GI50 with A549 was 3.08 µM (inactive); in the test with ACHN it was 2.84 µM (inactive); in the test with COLO 205, 2.13 µM (inactive); in the test with DU-145, 0.356 µM (active); with IGROV-1, 3.85 µM (inactive); in the test on M14, 0.448 µM (active). The GI50 is 0.735 µM (active) in the test with MCF7; 0.48 µM (active) in the test on MDA-MB-435; 0.409 µM (active) with MOLT-4; 1.46 µM (inactive) in the test with Malme-3M; 1.46 µM (inactive) with OVCAR-4; 2.25 µM (inactive) with OVCAR-5. For the same molecule, the GI50 with RPMI-8226 is 0.15 µM (active); in the test with RXF 393, 0.45 µM (active); in the test on SF-295 it was 0.971 µM (active); in the test on SF-539, 5.09 µM (inactive); in the test with SK-MEL-28 it was 8.2 µM (inactive); in the test with SK-OV-3 it was 0.547 µM (active). Moreover, in the test with TK-10, the GI50 is 0.251 µM (active).
As for `S=C1SCN(C2CCCCCCCCCCC2)CN1C1CCCCCCCCCCC1`, the GI50 in the test on A549, in the test on ACHN, in the test with COLO 205, with DU-145, with IGROV-1 and in the test with M14 was > 100 µM (inactive) each time. Further, the GI50 was 66.8 µM (inactive) in the test with MCF7; 42.2 µM (inactive) with MDA-MB-435; 46.1 µM (inactive) in the test with MOLT-4; > 100 µM (inactive) in the test on Malme-3M; 86.7 µM (inactive) in the test on OVCAR-4; > 100 µM (inactive) with OVCAR-5. In addition, the GI50 with RPMI-8226 is 47.5 µM (inactive); with RXF 393 it was > 100 µM (inactive); in the test with SF-295 it was > 100 µM (inactive); with SF-539, > 100 µM (inactive); with SK-MEL-28, > 100 µM (inactive); with SK-OV-3, > 100 µM (inactive). In addition, the GI50 with TK-10 was > 100 µM (inactive).
For the molecule `Cc1ccc(S(=O)(=O)N2CCNCCN(S(=O)(=O)c3ccc(C)cc3)CCN(S(=O)(=O)c3ccc(C)cc3)CC2)cc1`, the GI50 in the test on A549, in the test with ACHN, with COLO 205, with DU-145, in the test with IGROV-1 and with M14 was > 100 µM (inactive) each time. The GI50 in the test with MCF7, in the test on MDA-MB-435, with MOLT-4, in the test with Malme-3M, in the test with OVCAR-4 and with OVCAR-5 was > 100 µM (inactive) throughout. The GI50 in the test on RPMI-8226, with RXF 393, in the test on SF-295, in the test on SF-539, with SK-MEL-28 and in the test with SK-OV-3 was > 100 µM (inactive) each time. Besides, in the test on TK-10, the GI50 is > 100 µM (inactive).
In the case of `COc1nc2nccnc2c(=O)n1C`, the GI50 with A549, in the test with ACHN, with COLO 205, in the test on DU-145, with IGROV-1 and in the test with M14 was > 10 µM (inactive) each time. Also, the GI50 in the test with MCF7, in the test with MDA-MB-435, in the test on MOLT-4, with Malme-3M, with OVCAR-4 and in the test with OVCAR-5 was > 10 µM (inactive) throughout. Moreover, the GI50 in the test on RPMI-8226, in the test with RXF 393, with SF-295, in the test with SF-539, with SK-MEL-28 and in the test with SK-OV-3 was > 10 µM (inactive) throughout. Moreover, the GI50 with TK-10 was > 10 µM (inactive).
For `CCN1C=C/C(=C\C=C\c2cc[n+](CC)c3ccccc23)c2ccccc21`, the GI50 is 3.77 µM (inactive) in the test on A549; 11.9 µM (inactive) in the test on ACHN; 3.72 µM (inactive) in the test with COLO 205; 4.92 µM (inactive) in the test with DU-145; 3.59 µM (inactive) in the test on IGROV-1; 5.02 µM (inactive) in the test with M14. Further, the GI50 in the test with MCF7 was 6.28 µM (inactive); with MDA-MB-435, 4.21 µM (inactive); in the test with MOLT-4 it was 3.2 µM (inactive); in the test on Malme-3M it was 13.4 µM (inactive); with OVCAR-4, 4.46 µM (inactive); with OVCAR-5, 4.12 µM (inactive). Moreover, the GI50 in the test with RPMI-8226 was 3.07 µM (inactive); in the test on RXF 393, 17.3 µM (inactive); in the test on SF-295, 3.58 µM (inactive); with SF-539, 3.39 µM (inactive); with SK-MEL-28 it was 8.99 µM (inactive); with SK-OV-3, 4.66 µM (inactive). Also, the GI50 in the test on TK-10 is 10.6 µM (inactive).
With `Fc1cccc(C2SCc3nc4cc5ccccc5cc4n32)c1` (stereo not given), the GI50 in the test on A549, with ACHN, with COLO 205, in the test on DU-145, in the test on IGROV-1 and in the test with M14 was > 100 µM (inactive) each time. For the same molecule, the GI50 was > 100 µM (inactive) in the test with MCF7; > 100 µM (inactive) in the test with MDA-MB-435; > 100 µM (inactive) with MOLT-4; > 100 µM (inactive) in the test on Malme-3M; 90.8 µM (inactive) in the test on OVCAR-4; > 100 µM (inactive) in the test on OVCAR-5. The GI50 in the test on RPMI-8226, in the test on RXF 393, with SF-295, in the test with SF-539, with SK-MEL-28 and in the test with SK-OV-3 was > 100 µM (inactive) in each case. In addition, the GI50 in the test on TK-10 was > 100 µM (inactive).
